The test relates to antigen-relevant immune responses to NVCP VLP. Also on record: species or system experimental animals. The settings on record: in vivo.

SMILES strings stand for the structures.

Turning to `CCNCc1nc2c(N)nc3ccccc3c2n1CC(C)(C)O` [gardiquimod], the antigen-relevant immune responses result is “much more robust immune responses”.

These data come from US9585954B2, “Mucosal immunization” (ARIZONA BOARD OF REGENTS FOR AND ON BEHALF OF ARIZONA STATE …, priority 2009, dated 2017).
